The results in this text go back to ChEMBL document CHEMBL1148295, “Evaluation and comparison of 3D-QSAR CoMSIA models for CDK1, CDK5, and GSK-3 inhibition by paullones” (J Med Chem, 2004).

For experiment [1], the target named is Cyclin-dependent kinase 5/CDK5 activator 1 (Homo sapiens, UniProt Q00535). In kind it is protein-complex assay.
Description: Inhibitory activity against cyclin-dependent kinase 5/p25
For experiment [2], the target named is Cyclin-dependent kinase 1/cyclin B (Homo sapiens, UniProt O95067+P06493+P14635+Q8WWL7). It is filed as cell-based, Marthasterias glacialis, Oocyte.
Sequence of Cyclin-dependent kinase 1/cyclin B (P06493 whole entry): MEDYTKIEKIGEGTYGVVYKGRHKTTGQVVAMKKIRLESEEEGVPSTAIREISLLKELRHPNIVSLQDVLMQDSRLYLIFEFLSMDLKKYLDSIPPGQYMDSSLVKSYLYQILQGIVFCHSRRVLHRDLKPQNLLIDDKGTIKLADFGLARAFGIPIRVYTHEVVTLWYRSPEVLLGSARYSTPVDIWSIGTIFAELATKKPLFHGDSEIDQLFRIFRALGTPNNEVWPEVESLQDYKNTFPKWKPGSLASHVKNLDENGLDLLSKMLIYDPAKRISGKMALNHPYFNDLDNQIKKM
Sequence of Cyclin-dependent kinase 1/cyclin B (P14635 whole entry): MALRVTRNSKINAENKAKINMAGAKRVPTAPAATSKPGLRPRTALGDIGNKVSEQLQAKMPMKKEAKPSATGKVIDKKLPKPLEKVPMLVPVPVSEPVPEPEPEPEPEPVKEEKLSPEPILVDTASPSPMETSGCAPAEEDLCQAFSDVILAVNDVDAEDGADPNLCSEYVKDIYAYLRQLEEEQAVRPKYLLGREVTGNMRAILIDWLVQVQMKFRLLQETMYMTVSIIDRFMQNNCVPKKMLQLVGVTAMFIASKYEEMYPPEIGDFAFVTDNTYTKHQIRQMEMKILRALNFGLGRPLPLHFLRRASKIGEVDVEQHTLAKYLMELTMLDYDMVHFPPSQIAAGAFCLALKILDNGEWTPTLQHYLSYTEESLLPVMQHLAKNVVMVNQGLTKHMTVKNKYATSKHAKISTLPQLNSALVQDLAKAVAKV
Sequence of Cyclin-dependent kinase 1/cyclin B (Q8WWL7 whole entry): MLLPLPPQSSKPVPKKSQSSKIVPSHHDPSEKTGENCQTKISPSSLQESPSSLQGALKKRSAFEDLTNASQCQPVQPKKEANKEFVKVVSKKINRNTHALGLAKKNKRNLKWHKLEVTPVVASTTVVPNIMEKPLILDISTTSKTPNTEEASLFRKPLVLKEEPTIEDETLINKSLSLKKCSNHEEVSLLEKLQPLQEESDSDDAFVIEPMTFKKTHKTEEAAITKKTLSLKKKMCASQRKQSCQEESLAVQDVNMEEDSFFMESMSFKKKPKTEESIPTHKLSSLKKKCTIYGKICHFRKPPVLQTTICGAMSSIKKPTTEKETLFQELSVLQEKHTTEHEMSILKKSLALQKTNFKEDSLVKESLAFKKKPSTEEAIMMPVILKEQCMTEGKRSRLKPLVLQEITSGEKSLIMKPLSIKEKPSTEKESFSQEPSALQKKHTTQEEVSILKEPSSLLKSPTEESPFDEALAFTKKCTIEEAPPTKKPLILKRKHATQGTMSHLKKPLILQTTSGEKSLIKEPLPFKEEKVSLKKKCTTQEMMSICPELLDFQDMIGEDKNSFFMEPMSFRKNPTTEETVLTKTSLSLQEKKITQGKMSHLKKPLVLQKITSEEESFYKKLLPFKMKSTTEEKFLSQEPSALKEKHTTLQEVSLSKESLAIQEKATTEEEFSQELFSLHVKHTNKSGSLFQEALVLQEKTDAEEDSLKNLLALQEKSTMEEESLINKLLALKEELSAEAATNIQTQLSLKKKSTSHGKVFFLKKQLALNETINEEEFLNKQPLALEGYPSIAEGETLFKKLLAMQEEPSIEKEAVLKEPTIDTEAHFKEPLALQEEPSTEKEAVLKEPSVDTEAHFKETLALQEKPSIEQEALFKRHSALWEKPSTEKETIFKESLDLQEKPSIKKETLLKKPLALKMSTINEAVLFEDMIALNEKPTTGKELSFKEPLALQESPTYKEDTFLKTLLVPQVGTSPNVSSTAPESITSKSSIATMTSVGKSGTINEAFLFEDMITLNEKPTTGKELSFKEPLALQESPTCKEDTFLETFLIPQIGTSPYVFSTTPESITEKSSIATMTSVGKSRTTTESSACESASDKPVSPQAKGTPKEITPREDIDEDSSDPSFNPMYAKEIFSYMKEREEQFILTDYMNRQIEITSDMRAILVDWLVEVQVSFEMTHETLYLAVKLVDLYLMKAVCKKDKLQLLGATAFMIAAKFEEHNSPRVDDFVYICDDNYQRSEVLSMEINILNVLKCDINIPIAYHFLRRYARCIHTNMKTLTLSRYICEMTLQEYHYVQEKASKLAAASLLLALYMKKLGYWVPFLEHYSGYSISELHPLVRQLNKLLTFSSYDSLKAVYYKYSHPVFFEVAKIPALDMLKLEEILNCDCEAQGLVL
Sequence of Cyclin-dependent kinase 1/cyclin B (O95067 whole entry): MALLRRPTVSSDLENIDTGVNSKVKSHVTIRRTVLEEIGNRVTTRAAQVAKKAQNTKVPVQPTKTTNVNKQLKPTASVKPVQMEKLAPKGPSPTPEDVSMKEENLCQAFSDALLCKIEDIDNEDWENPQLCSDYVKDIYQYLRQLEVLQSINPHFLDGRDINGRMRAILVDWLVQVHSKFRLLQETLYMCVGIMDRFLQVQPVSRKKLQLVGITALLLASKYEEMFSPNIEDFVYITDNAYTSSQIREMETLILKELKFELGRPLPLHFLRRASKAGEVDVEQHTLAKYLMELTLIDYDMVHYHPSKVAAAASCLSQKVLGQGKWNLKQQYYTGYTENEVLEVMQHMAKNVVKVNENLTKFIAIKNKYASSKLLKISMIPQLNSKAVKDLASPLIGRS
Description: Inhibitory activity against cyclin dependent kinase 1-cyclinB extracted from M phase starfish (Marthasterias glacialis) oocytes

One may read the IC50 as the concentration needed to halve the response being measured. High values mean weaker potency, low ones greater potency.

Sequence of Cyclin-dependent kinase 5/CDK5 activator 1 (Q00535 whole entry): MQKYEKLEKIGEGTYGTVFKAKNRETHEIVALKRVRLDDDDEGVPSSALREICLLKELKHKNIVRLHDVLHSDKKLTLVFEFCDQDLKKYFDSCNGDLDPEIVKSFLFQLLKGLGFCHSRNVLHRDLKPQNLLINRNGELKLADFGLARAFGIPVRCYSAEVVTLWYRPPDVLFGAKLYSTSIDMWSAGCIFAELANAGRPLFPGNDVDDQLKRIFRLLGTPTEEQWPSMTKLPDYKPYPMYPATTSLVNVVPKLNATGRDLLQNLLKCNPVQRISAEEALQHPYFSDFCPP
Sequence of Cyclin-dependent kinase 5/CDK5 activator 1 (Q15078 whole entry, further chain): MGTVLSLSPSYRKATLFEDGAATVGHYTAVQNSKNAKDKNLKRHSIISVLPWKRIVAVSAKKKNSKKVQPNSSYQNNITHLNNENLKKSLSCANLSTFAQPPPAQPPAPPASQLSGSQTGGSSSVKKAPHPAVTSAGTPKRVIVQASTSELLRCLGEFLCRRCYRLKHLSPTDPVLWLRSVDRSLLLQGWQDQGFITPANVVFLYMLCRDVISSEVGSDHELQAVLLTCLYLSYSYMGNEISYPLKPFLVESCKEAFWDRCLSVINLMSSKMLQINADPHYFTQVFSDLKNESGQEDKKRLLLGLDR

In the case of `COc1ccc2c(c1)NC(=O)Cc1c-2[nH]c2ccc([N+](=O)[O-])cc12`, the IC50 in experiment [1] was 0.63 µM; in experiment [2] it was 1 µM.
In experiment [2], `N#Cc1ccc2[nH]c3c(c2c1)CC(=O)Nc1ccsc1-3` showed a half-maximal inhibitory concentration (IC50) of 0.075 µM.
The compound `Cc1ccc2[nH]c3c(c2c1)CC(=O)Nc1ccsc1-3` had a concentration for half-maximal inhibition (IC50) in experiment [1] of 40 µM.
Turning to `O=C1Cc2c([nH]c3ccc([N+](=O)[O-])cc23)-c2sccc2N1`, the IC50 in experiment [1] was 0.1 µM; in experiment [2] it was 0.08 µM.
As for `O=C1Cc2c([nH]c3ccc(C(F)(F)F)cc23)-c2cccnc2N1`, the 50% inhibitory concentration (IC50) in experiment [1] is 13 µM; in experiment [2], 6 µM.
As for `COc1ccc2[nH]c3c(c2c1)CC(=O)Nc1ncccc1-3`, the concentration for half-maximal inhibition (IC50) in experiment [1] was 420 µM; in experiment [2] it was 89.9 µM.
Taken in the same sequence, the figures for `O=[N+]([O-])c1ccc2[nH]c3c(c2c1)CC(=S)Nc1ccccc1-3` were 1.7 µM and 1.3 µM.
Taken in the same sequence, the figures for `Cc1ccc2[nH]c3c(c2c1)CC(=O)Nc1ncccc1-3` were 430 µM and 200 µM.
`O=C1Cc2c([nH]c3ccc(Br)cc23)-c2sccc2N1`: inhibition in experiment [1] was half-maximal at 4 µM (IC50).
For `CSC1=Nc2ccccc2-c2c(c3cc([N+](=O)[O-])ccc3n2C)C1`, the IC50 in experiment [1] is 849 µM; in experiment [2] it was 230 µM.
In turn, `SC1=Nc2ccccc2-c2cc(-c3ccccn3)cc(-c3cccs3)c2C1` had an IC50 in experiment [2] of 33 µM.
On to `O=C1Cc2c([nH]c3ccc(Cl)cc23)-c2cccnc2N1`, for which the IC50 in experiment [1] is 42 µM; in experiment [2], 23 µM.
Regarding `O=C1Cc2c([nH]c3ncccc23)-c2ccccc2N1`, the IC50 in experiment [1] was 3.3 µM.
The same measure, in the same setting: for `CC(=O)Cc1ccc2c(c1)-c1[nH]c3ccc(C(F)(F)F)cc3c1CC(=O)N2` the value was 0.42 µM.
`O=C1Cc2c([nH]c3ccc(Cl)cc23)-c2sccc2N1` gave a half-maximal inhibitory concentration (IC50) in experiment [1] of 5 µM.
